Like-named read-outs stand apart in the source and are kept apart here. Where no end group is shown, it is not given here. [ ]: non-standard residue; d: D form.
Tests used:
BWF1 mice [1] = assay: FACS of CD8+ Foxp3+ T cells in mesenteric nodes and spleen after peptide gavage; assay type: in vivo
Protocol: Lastly, we synthesized the D-form of pCons, for the purpose of administering it orally since D-forms are resistant to acid degradation. […] Specifically, studies have been completed in which BWF1 mice were fed 5 days a week out of every 30 days saline, low dose pCons (25 ug), middle dose (100 ug) or high dose (250 ug) by gavage. Both D and L-forms are being studied. Most of those mice were sacrificed to study characteristics of cells in mesenteric lymph nodes and spleens. Observations from these studies are disclosed in the following paragraphs.
First, we observed that CD8+ T cells that express Foxp3 (known to be inhibitory T cells for SLE) were induced in mesenteric nodes and spleen cells by the highest dose (250 ug) of D-peptide and by the middle dose (100 ug) and high dose of L-peptide. Thus the administration of low/middle dose D-peptide and of low dose L-peptide was not effective. Data were obtained by FACS analysis of total node populations, with percent of CD8+ Foxp3+ cells in untreated mice <1%, compared to 3-6% of total CD8+ cells in the effective doses of peptide. These changes are high enough to be clinically significant according to our earlier data with L-peptide given i.v.

BWF1 mice [2] = assay: proteinuria (Azostix) in mice fed peptide; assay type: in vivo; conditions: 250 ug fed 5 days out of each 30 from age 10 weeks; for proteinuria vs saline: at 34 weeks
Protocol: (§1) Anti-DNA antibodies were measured by ELISA and proteinuria by Azostix (see, e.g. Yang et al., J. I., 2003, 171: 2142-2153).
(§2) We also observed the clinical effects of feeding either D- or L-peptides at the low, medium and high doses of each. Because mRNA analysis of mesenteric lymph nodes provided evidence that high dose D-peptide would induce tolerance, we began new experiments to compare high dose (250 ug) feedings of D-peptide to the same dose of L-peptide. A control group was fed saline on the same schedule as the peptide feedings, which is daily for 5 days out of each 30 days. Each group contains 14 mice; treatment was begun at age 10 weeks. Observed effects on anti-DNA are as follows. […] Note that the saline control group is lower than the positive control anti-DNA, which is serum from BWF1 mice with heavy proteinuria and imminent death. Thus, the saline control has not reached the expected high level at this point but should do so in the next 2 months.
Observed effects on Proteinuria are as follows.

mice = assay: induction of Treg and Ti in mice by administered peptide; assay type: in vivo; conditions: administered subcutaneously (so in the source)
BWF1 mice [3] = assay: anti-DNA antibodies (ELISA) in mice fed peptide; assay type: in vivo; conditions: 250 ug fed 5 days out of each 30 from age 10 weeks
Protocol: as §1, §2

CD4+ CD25− T cells = assay: suppression of autologous CD4+ CD25− T cells by pCons-induced Treg; assay type: cell-based, human; conditions: 1:1 ratios
Excerpt: T cells were also expanded and silencing of Foxp3 by transfection with specific siRNA for Foxp3 abrogated the suppressive capacity of the induced T reg by ½ (3rd panel, FIG. 8).
(§3) Next, we studied the ability of L-pCons to induce Treg in T cells from the peripheral blood of patients with SLE (36 patients, 32 healthy controls). Stimulatory control peptides B and D are wild peptides from human mAb anti-DNA; peptide A is a nonstimulatory negative control (see, e.g. Kaki et al., Lupus 2004; 13:490-500). […] These expanded cells were regulatory (FIG. 8): they suppressed proliferation and IFNg synthesis by autologous CD4+ CD25− cells in culture. Numbers of CD4+ Foxp3+ T cells were also expanded and silencing of Foxp3 by transfection with specific siRNA for Foxp3 abrogated the suppressive capacity of the induced T reg by ½ (3rd panel, FIG. 8). […] Patients who were anti-DNA negative were unlikely to respond to pCons with expansion of Treg (see, e.g. La Cava et al, Lupus. 2008; 17(5):421-5).

[4] = tested on: peripheral blood mononuclear cells from patients with SLE; assay: expansion of CD4+ CD25hi T cells in SLE patient cells cultured with peptide for 5 days; assay type: cell-based, human; conditions: for expansion of CD4+ CD25hi (Foxp3+) regulatory T cell populations: SLE patient cells in culture, 5 days
Protocol: In these experiments, pCons and other stimulatory (peptides B and D) peptides and non-stimulatory peptides (peptide A) that are wild peptides from human monoclonal antibodies to DNA were incubated with peripheral blood mononuclear cells from patients with SLE.
In FIGS. 6 and 7, we show data on the ability of L-pCons to mature the CD4+ CD25hiFoxp3+ natural regulatory cells in patients with SLE. In these experiments, pCons and other stimulatory (peptides B and D) peptides and non-stimulatory peptides (peptide A) that are wild peptides from human monoclonal antibodies to DNA were incubated with peripheral blood mononuclear cells from patients with SLE. […] Such cells are thought to be regulatory T cells.
as §3

BWF1 mice [5] = conditions: cited from earlier work
BWF1 mice [6] = assay: single adoptive transfer of CD8+ Ti from tolerized mice to irradiated syngeneic recipients; assay type: in vivo; conditions: single transfer of 10×10^6 CD8+ T cells from spleens of tolerized mice
Excerpt: FIG. 4 provides graphs of data showing the CD8+ Ti induced by i.v. administration of L-pCons are potent in suppressing nephritis (left panel) and prolonging survival in vivo (right panel) (see, e.g. Hahn et al., J Immunol 2005; 175:7728-37).

BWF1 mice [7] = assay: survival and clinical disease in BWF1 mice given L-pCons intravenously; assay type: in vivo; conditions: 1 mg i.v. monthly from age 10 weeks
Protocol: FIG. 3 provides a graph of data showing the suppression of clinical disease that occurs in BWF1 mice treated monthly from age 10 weeks with 1 mg of L-pCons administered intravenously.
For tolerance induction, ten-to-twelve week-old BWF1 mice received a single i.v. dose of 1 mg of one of the peptides, dissolved in saline, as reported previously (see, e.g. Singh et al., J Clin Invest 1995; 96:2990-6). Controls in selected experiments were either treated with saline or control peptides.
Using 50% mortality times, the lifespan is prolonged 30-32 weeks. […] A similar study has been started with D-pCons administered orally; results are anticipated in 30 weeks. Serum is obtained at regular intervals for anti-DNA testing; urine is tested for proteinuria monthly (when 2+ appears mice are tested weekly), and survival is measured daily.
Since this increase in survival was small (6 weeks), we developed an algorithm based on 435 VH sequence peptides to create an artificial 15-mer peptide containing amino acid sequences which bind to I-Ed (one of the MHC Class II molecules in BWF1) and to be stimulatory for BWF1 T cells—which we called pConsensus or pCons. […] The control artificial 15-mer, pNegative (pNeg) was constructed to bind I-Ed but not stimulate T cells. […]

[8] = high dose i.v. tolerogen once a month, BWF1 females

Sequence: FIEWNKLRFRQGLEW ([dF][dI][dE][dW][dN][dK][dL][dR][dF][dR][dQ]G[dL][dE][dW]) [D-pCons]
- induction of CD8+ T cells that express Foxp3 (BWF1 mice [1]; low dose 25 ug by gavage): not effective
- induction of CD8+ T cells that express Foxp3 (BWF1 mice [1]; middle dose 100 ug by gavage): not effective
- mean level of proteinuria (zero to 4+) (BWF1 mice [2]; at 24 weeks of age): no differences in mean level of proteinuria
- proteinuria vs saline (BWF1 mice [2]; listed as D-peptide): lower in the D-peptide group (p=0.18)
- induction of Treg and Ti (mice): induces Treg and Ti
- anti-DNA antibody levels vs saline (BWF1 mice [3]; at 24 weeks of age, not statistically significant): trends to lower anti-DNA antibody levels
- anti-DNA antibody levels vs saline (BWF1 mice [3]; at 34 weeks, one-tailed t test, listed as D-peptide): borderline (p=0.17 by one-tailed t test)

Sequence: FIEWNKLRFRQGLEW [L-pCons]
- effect of peptide-induced Treg on CD4+ CD25− T cells (CD4+ CD25− T cells): suppress proliferation and IFNg production
- patients showing expansion of CD4+ CD25hi cells to more than the usual 2-3% of peripheral blood MNC ([4]; 5 days in culture): Thirteen of 23
- expansion of CD4+ CD25hi (Foxp3+) regulatory T cell populations [4]: expand significantly
- expansion of CD4+ CD25hi (Foxp3+) regulatory T cell populations ([4]; listed as pCons): expanded CD4+ CD25hi populations in some patients
- appearance of anti-DNA, anti-phospholipid, and proteinuria (BWF1 mice [5]; [8]): significant delay
- prolongation of survival (BWF1 mice [5]; [8]): 24 week
- prolongs survival (BWF1 mice [5]; started after nephritis and anti-DNA antibodies have appeared): 3-4 months
- prolongs survival (BWF1 mice [5]; started prior to disease onset): 4-5 months
- proteinuria vs saline (BWF1 mice [2]; listed as L-peptide): lower in the L-peptide group (p=0.01)
- effect of peptide-induced CD8+ Ti on nephritis and survival (BWF1 mice [6]): potent in suppressing nephritis and prolonging survival in vivo
- appearance of IgG anti-DNA in serum and of nephritis (BWF1 mice [7]): significant delay
- lifespan prolonged, using 50% mortality times (BWF1 mice [7]): 30-32 weeks
- anti-DNA antibody levels vs saline (BWF1 mice [3]; at 34 weeks, one-tailed t test, listed as L-peptide): significantly lower than saline (p=0.03)
